Values of other authors as cited in patent US6043366A (priority 1997, dated 2000).

Columns and labels:
LC 132 receptor = conditions: cells in culture

For “OFQ: seventeen amino-acid-long peptide (F-G-G-F-T-G-A-R-K-S-A-R-K-L-A-N-Q), isolated from rat brain, natural ligand to the G-protein coupled receptor OFQ-R (FGGFTGARKSARKLANQ; Nociceptin; UniProt Q13519 130-146, looked up)”, the hyperalgesia (mice; administered intra-cerebroventricularly to mice) is given as “induces hyperalgesia”, the locomotive activity (mice; injected intra-cerebroventricularly in mice) is given as “slowed down locomotive activity” and the “adenylate cyclase in CHO(LC 132+) cells” value (LC 132 receptor) is given as “inhibits adenylate cyclase”.
